{"source": "paper PMC11864979", "about": "“First-in-class ultralong-target-residence-time p38α inhibitors as a mitosis-targeted therapy for colorectal cancer” (Nature Cancer, 2025)", "assay_in_all_cases": "selectivity profiling in a panel of 340 wild-type kinases (Reaction Biology Europe)", "assay_type_in_all_cases": "binding", "key": {"340 wild-type kinases [1]": {"molecular_target": "T1, 340 wild-type kinases (Homo sapiens, UniProt Q16584)", "T1 construct": "purchased Reaction Biology Europe", "T1 sequence (Q16584 whole entry)": "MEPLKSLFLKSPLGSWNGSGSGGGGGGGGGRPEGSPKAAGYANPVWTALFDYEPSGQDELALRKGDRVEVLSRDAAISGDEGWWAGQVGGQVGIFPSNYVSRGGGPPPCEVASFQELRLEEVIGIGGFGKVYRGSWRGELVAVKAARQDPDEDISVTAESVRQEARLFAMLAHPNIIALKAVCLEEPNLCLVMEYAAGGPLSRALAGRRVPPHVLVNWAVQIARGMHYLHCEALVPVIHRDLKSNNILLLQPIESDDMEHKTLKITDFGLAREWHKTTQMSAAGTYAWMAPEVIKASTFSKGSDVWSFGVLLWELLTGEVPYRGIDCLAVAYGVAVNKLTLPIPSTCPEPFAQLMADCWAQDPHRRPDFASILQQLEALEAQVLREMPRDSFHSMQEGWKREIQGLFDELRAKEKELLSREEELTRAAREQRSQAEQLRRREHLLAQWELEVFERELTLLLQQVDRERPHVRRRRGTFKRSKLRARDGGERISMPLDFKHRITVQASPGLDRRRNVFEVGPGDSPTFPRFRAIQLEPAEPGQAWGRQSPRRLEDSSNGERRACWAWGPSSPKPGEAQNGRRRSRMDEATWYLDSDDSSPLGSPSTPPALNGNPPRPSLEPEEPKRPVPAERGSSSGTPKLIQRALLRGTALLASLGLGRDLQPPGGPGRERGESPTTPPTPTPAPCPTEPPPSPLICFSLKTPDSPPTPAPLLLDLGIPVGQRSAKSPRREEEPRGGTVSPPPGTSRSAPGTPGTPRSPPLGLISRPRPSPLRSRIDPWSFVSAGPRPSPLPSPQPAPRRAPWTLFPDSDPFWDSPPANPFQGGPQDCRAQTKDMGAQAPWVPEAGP"}, "340 wild-type kinases [2]": {"molecular_target": "T2, 340 wild-type kinases (Homo sapiens, UniProt Q02779)", "T2 construct": "purchased Reaction Biology Europe", "T2 sequence (Q02779 whole entry)": "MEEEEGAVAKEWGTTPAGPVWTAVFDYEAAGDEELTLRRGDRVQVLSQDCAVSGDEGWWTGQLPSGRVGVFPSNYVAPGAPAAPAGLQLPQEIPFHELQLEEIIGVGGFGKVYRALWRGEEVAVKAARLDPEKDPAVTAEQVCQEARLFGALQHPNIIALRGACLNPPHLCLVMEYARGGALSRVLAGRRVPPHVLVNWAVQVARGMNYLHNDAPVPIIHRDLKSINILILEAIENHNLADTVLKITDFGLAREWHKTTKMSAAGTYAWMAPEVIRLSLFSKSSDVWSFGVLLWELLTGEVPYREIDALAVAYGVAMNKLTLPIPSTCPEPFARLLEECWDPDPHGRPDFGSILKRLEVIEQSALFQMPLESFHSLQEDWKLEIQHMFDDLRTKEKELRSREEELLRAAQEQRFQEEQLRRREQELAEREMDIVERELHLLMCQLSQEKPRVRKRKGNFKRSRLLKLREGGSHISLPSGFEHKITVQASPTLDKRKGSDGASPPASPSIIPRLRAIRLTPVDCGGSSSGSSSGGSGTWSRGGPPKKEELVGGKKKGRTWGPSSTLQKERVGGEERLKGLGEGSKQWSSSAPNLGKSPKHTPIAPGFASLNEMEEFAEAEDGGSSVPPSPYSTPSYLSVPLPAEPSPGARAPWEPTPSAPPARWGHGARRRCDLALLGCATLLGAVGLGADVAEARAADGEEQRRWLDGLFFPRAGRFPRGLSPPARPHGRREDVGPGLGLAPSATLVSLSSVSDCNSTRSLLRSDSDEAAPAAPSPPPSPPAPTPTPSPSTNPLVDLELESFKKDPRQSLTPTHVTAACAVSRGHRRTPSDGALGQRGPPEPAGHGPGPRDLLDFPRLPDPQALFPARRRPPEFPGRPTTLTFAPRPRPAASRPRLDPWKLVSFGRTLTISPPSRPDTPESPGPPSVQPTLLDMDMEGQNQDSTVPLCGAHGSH"}, "340 wild-type kinases [3]": {"molecular_target": "T3, 340 wild-type kinases (Homo sapiens, UniProt P51817)", "T3 construct": "purchased Reaction Biology Europe", "T3 sequence (P51817 1-358)": "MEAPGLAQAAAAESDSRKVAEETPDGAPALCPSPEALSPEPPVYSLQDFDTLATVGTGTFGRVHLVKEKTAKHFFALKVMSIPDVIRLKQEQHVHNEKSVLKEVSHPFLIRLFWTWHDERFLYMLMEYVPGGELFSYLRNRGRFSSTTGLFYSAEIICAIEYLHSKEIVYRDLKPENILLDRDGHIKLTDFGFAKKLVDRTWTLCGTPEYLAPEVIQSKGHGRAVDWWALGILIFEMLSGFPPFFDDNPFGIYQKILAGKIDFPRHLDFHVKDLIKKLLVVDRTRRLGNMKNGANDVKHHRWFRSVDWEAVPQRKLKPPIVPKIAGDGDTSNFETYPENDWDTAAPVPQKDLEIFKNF"}, "340 wild-type kinases [4]": {"molecular_target": "T4, 340 wild-type kinases (Homo sapiens, UniProt P57059)", "T4 construct": "purchased Reaction Biology Europe"}, "340 wild-type kinases [5]": {"molecular_target": "T5, 340 wild-type kinases (Homo sapiens, UniProt O00311)", "T5 construct": "purchased Reaction Biology Europe", "T5 sequence (O00311 whole entry)": "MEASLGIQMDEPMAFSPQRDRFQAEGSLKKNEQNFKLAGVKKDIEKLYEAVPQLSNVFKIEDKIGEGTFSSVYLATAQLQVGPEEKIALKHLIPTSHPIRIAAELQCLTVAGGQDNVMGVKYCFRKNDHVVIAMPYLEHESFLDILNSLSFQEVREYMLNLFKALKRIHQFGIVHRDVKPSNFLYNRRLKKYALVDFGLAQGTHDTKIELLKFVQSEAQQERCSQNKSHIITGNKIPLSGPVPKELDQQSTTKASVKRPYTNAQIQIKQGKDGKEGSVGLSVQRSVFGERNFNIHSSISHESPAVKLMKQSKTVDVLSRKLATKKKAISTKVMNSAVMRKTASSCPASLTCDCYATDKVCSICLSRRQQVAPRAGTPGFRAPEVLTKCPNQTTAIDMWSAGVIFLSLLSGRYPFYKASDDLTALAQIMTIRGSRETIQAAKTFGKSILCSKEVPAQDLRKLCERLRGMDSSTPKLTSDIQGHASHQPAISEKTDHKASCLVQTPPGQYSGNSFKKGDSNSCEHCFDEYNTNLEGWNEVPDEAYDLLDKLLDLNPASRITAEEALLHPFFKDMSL"}, "340 wild-type kinases [6]": {"molecular_target": "T6, 340 wild-type kinases (Homo sapiens, UniProt P51956)", "T6 construct": "purchased Reaction Biology Europe", "T6 sequence (P51956 1-506)": "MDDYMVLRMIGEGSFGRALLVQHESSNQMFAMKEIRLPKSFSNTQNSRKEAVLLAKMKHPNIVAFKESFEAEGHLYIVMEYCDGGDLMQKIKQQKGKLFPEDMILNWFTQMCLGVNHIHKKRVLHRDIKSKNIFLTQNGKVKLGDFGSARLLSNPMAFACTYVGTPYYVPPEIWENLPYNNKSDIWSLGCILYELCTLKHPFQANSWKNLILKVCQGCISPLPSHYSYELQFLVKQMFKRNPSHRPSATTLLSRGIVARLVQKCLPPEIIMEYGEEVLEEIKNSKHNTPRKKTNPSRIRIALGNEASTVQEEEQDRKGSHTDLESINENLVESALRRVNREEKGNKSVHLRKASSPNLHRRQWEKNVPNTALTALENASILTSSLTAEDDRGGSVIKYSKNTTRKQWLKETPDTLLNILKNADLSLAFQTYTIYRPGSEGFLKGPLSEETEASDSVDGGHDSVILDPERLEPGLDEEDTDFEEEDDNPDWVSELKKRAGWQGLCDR"}, "340 wild-type kinases [7]": {"molecular_target": "T7, 340 wild-type kinases (Homo sapiens, UniProt P06493)", "T7 construct": "purchased Reaction Biology Europe", "T7 sequence (P06493 whole entry)": "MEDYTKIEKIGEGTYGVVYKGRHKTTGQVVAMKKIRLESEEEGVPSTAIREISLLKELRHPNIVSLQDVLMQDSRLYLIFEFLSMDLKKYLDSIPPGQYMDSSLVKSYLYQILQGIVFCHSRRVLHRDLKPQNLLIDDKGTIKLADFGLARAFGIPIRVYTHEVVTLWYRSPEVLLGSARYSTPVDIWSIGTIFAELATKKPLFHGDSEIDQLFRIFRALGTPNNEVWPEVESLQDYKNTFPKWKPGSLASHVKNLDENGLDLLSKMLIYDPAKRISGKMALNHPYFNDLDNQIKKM"}, "340 wild-type kinases [8]": {"molecular_target": "T8, 340 wild-type kinases (Homo sapiens, UniProt Q05513)", "T8 construct": "purchased Reaction Biology Europe", "T8 sequence (Q05513 1-592)": "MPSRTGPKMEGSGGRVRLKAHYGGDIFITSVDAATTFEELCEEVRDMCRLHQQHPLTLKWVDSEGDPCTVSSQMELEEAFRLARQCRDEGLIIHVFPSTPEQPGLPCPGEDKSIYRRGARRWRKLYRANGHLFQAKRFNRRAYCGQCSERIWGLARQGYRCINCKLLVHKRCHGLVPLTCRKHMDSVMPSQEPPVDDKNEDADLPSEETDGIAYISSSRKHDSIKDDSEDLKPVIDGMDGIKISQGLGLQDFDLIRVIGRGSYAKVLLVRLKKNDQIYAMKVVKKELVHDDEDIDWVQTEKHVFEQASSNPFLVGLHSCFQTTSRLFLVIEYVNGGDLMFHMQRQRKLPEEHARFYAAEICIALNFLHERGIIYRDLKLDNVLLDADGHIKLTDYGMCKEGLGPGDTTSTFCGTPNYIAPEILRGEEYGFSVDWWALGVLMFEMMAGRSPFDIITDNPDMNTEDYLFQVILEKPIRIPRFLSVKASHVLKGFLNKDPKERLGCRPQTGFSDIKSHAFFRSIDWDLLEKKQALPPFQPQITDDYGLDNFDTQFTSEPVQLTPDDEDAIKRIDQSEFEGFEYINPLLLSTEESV"}, "340 wild-type kinases [9]": {"molecular_target": "T9, 340 wild-type kinases (Homo sapiens, UniProt P54756)", "T9 construct": "purchased Reaction Biology Europe", "T9 sequence (P54756 25-1037)": "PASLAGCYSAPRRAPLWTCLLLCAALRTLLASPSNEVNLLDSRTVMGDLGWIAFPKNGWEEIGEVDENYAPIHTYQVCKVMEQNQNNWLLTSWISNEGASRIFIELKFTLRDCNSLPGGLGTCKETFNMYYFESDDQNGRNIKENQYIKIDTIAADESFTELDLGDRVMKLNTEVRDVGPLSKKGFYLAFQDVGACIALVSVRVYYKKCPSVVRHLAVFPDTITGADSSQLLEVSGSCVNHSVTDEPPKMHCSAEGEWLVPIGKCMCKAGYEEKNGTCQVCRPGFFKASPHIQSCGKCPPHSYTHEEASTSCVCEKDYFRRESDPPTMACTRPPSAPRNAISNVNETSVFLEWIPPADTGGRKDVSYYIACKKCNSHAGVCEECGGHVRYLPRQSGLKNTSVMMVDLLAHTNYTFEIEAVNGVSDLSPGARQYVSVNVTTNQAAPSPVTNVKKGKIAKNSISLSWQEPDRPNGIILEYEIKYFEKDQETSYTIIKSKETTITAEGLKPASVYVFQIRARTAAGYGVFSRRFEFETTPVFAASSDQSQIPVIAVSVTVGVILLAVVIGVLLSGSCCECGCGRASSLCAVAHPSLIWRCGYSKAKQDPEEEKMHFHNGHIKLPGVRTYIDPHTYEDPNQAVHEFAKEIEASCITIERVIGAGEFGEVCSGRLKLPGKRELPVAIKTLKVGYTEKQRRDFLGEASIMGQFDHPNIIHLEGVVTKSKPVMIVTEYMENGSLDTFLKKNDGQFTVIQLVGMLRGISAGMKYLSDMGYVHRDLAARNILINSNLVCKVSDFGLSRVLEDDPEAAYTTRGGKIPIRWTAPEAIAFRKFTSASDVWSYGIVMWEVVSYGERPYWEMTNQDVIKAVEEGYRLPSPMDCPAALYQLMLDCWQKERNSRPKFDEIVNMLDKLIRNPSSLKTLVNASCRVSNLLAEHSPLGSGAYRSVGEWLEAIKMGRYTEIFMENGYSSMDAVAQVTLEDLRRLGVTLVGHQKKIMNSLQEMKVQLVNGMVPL"}, "340 wild-type kinases [10]": {"molecular_target": "T10, 340 wild-type kinases (Homo sapiens, UniProt Q9H0K1)", "T10 construct": "purchased Reaction Biology Europe", "T10 sequence (Q9H0K1 whole entry)": "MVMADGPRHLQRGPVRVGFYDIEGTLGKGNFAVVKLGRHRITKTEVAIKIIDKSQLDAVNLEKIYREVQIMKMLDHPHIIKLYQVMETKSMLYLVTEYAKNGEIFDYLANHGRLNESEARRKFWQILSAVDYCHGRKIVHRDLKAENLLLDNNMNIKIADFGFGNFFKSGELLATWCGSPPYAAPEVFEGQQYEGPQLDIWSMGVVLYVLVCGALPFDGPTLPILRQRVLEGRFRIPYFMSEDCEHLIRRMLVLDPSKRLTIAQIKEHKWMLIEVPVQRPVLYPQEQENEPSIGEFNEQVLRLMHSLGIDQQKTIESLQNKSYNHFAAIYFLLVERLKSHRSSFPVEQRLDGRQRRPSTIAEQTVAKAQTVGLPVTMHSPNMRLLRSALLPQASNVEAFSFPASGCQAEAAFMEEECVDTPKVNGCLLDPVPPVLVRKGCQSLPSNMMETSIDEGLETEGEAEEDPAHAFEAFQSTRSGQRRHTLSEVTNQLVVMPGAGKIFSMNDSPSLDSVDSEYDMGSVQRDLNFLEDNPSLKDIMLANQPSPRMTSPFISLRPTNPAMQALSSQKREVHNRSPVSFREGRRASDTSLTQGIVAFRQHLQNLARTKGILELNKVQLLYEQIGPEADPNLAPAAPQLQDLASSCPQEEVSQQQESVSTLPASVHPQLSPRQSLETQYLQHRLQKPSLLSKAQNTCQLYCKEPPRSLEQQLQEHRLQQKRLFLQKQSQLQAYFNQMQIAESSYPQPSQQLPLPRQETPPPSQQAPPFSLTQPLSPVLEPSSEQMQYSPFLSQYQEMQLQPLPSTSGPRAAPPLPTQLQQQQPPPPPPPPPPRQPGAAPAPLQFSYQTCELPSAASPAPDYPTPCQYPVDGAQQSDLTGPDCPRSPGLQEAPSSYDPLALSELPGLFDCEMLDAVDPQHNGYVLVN"}}, "note": "Where two headings read alike, the source gives them in different places.", "data": [{"smiles": "CNC(=O)c1ccc2c(c1)C(=O)c1ccc(Nc3ccc(F)c(NC(=O)C4CC4)c3)cc1CC2", "note": "[Compound 2015]", "values": [{"measurement": "remaining activity at 0.2 µM", "setting": "340 wild-type kinases [1]; 0.2 µM 2015, read-out: MAP3K11 residual activity", "value": 100, "unit": "%"}, {"measurement": "remaining activity at 1 µM", "setting": "340 wild-type kinases [1]; 1 µM 2015, read-out: MAP3K11 residual activity", "value": 93.8, "unit": "%"}, {"measurement": "remaining activity at 0.2 µM", "setting": "340 wild-type kinases [1]; MAP3K11, 0.2 µM, read-out: residual activity", "value": 100, "unit": "%"}, {"measurement": "remaining activity at 1 µM", "setting": "340 wild-type kinases [1]; MAP3K11, 1 µM, read-out: residual activity", "value": 93.8, "unit": "%"}, {"measurement": "remaining activity at 0.2 µM", "setting": "340 wild-type kinases [2]; 0.2 µM 2015, read-out: MAP3K10 residual activity", "value": 111, "unit": "%"}, {"measurement": "remaining activity at 1 µM", "setting": "340 wild-type kinases [2]; 1 µM 2015, read-out: MAP3K10 residual activity", "value": 106, "unit": "%"}, {"measurement": "remaining activity at 0.2 µM", "setting": "340 wild-type kinases [2]; MAP3K10, 0.2 µM, read-out: residual activity", "value": 111, "unit": "%"}, {"measurement": "remaining activity at 1 µM", "setting": "340 wild-type kinases [2]; MAP3K10, 1 µM, read-out: residual activity", "value": 106, "unit": "%"}, {"measurement": "remaining activity at 0.2 µM", "setting": "340 wild-type kinases [3]; 0.2 µM 2015, read-out: PRKX residual activity", "value": 107, "unit": "%"}, {"measurement": "remaining activity at 1 µM", "setting": "340 wild-type kinases [3]; 1 µM 2015, read-out: PRKX residual activity", "value": 97.1, "unit": "%"}, {"measurement": "remaining activity at 0.2 µM", "setting": "340 wild-type kinases [3]; PRKX, 0.2 µM, read-out: residual activity", "value": 107, "unit": "%"}, {"measurement": "remaining activity at 1 µM", "setting": "340 wild-type kinases [3]; PRKX, 1 µM, read-out: residual activity", "value": 97, "unit": "%"}, {"measurement": "remaining activity at 0.2 µM", "setting": "340 wild-type kinases [4]; 0.2 µM 2015, read-out: SIK1 residual activity", "value": 90.9, "unit": "%"}, {"measurement": "remaining activity at 1 µM", "setting": "340 wild-type kinases [4]; 1 µM 2015, read-out: SIK1 residual activity", "value": 85.5, "unit": "%"}, {"measurement": "remaining activity at 0.2 µM", "setting": "340 wild-type kinases [4]; SIK1, 0.2 µM, read-out: residual activity", "value": 90.9, "unit": "%"}, {"measurement": "remaining activity at 1 µM", "setting": "340 wild-type kinases [4]; SIK1, 1 µM, read-out: residual activity", "value": 85.5, "unit": "%"}, {"measurement": "remaining activity at 0.2 µM", "setting": "340 wild-type kinases [5]; 0.2 µM 2015, read-out: CDC7/DBF4 residual activity", "value": 108, "unit": "%"}, {"measurement": "remaining activity at 1 µM", "setting": "340 wild-type kinases [5]; 1 µM 2015, read-out: CDC7/DBF4 residual activity", "value": 95.1, "unit": "%"}, {"measurement": "remaining activity at 0.2 µM", "setting": "340 wild-type kinases [5]; CDC7/DBF4, 0.2 µM, read-out: residual activity", "value": 108, "unit": "%"}, {"measurement": "remaining activity at 1 µM", "setting": "340 wild-type kinases [5]; CDC7/DBF4, 1 µM, read-out: residual activity", "value": 95.1, "unit": "%"}, {"measurement": "remaining activity at 0.2 µM", "setting": "340 wild-type kinases [6]; 0.2 µM 2015, read-out: NEK3 residual activity", "value": 98.3, "unit": "%"}, {"measurement": "remaining activity at 1 µM", "setting": "340 wild-type kinases [6]; 1 µM 2015, read-out: NEK3 residual activity", "value": 88.8, "unit": "%"}, {"measurement": "remaining activity at 0.2 µM", "setting": "340 wild-type kinases [6]; NEK3, 0.2 µM, read-out: residual activity", "value": 98.3, "unit": "%"}, {"measurement": "remaining activity at 1 µM", "setting": "340 wild-type kinases [6]; NEK3, 1 µM, read-out: residual activity", "value": 88.8, "unit": "%"}, {"measurement": "remaining activity at 0.2 µM", "setting": "340 wild-type kinases [7]; 0.2 µM 2015, read-out: CDK1/CycA2 residual activity", "value": 99.4, "unit": "%"}, {"measurement": "remaining activity at 0.2 µM", "setting": "340 wild-type kinases [7]; 0.2 µM 2015, read-out: CDK1/CycB1 residual activity", "value": 92.8, "unit": "%"}, {"measurement": "remaining activity at 0.2 µM", "setting": "340 wild-type kinases [7]; 0.2 µM 2015, read-out: CDK1/CycE1 residual activity", "value": 100, "unit": "%"}, {"measurement": "remaining activity at 1 µM", "setting": "340 wild-type kinases [7]; 1 µM 2015, read-out: CDK1/CycA2 residual activity", "value": 101, "unit": "%"}, {"measurement": "remaining activity at 1 µM", "setting": "340 wild-type kinases [7]; 1 µM 2015, read-out: CDK1/CycB1 residual activity", "value": 83.7, "unit": "%"}, {"measurement": "remaining activity at 1 µM", "setting": "340 wild-type kinases [7]; 1 µM 2015, read-out: CDK1/CycE1 residual activity", "value": 90.1, "unit": "%"}, {"measurement": "remaining activity at 0.2 µM", "setting": "340 wild-type kinases [7]; CDK1/CycA2, 0.2 µM, read-out: residual activity", "value": 99.3, "unit": "%"}, {"measurement": "remaining activity at 1 µM", "setting": "340 wild-type kinases [7]; CDK1/CycA2, 1 µM, read-out: residual activity", "value": 101, "unit": "%"}, {"measurement": "remaining activity at 0.2 µM", "setting": "340 wild-type kinases [7]; CDK1/CycB1, 0.2 µM, read-out: residual activity", "value": 92.8, "unit": "%"}, {"measurement": "remaining activity at 1 µM", "setting": "340 wild-type kinases [7]; CDK1/CycB1, 1 µM, read-out: residual activity", "value": 83.7, "unit": "%"}, {"measurement": "remaining activity at 0.2 µM", "setting": "340 wild-type kinases [7]; CDK1/CycE1, 0.2 µM, read-out: residual activity", "value": 100, "unit": "%"}, {"measurement": "remaining activity at 1 µM", "setting": "340 wild-type kinases [7]; CDK1/CycE1, 1 µM, read-out: residual activity", "value": 90.1, "unit": "%"}, {"measurement": "remaining activity at 0.2 µM", "setting": "340 wild-type kinases [8]; 0.2 µM 2015, read-out: PKCzeta residual activity", "value": 126, "unit": "%"}, {"measurement": "remaining activity at 0.2 µM", "setting": "340 wild-type kinases [8]; 0.2 µM 2015, read-out: PKMzeta residual activity", "value": 106, "unit": "%"}, {"measurement": "remaining activity at 1 µM", "setting": "340 wild-type kinases [8]; 1 µM 2015, read-out: PKCzeta residual activity", "value": 111, "unit": "%"}, {"measurement": "remaining activity at 1 µM", "setting": "340 wild-type kinases [8]; 1 µM 2015, read-out: PKMzeta residual activity", "value": 102, "unit": "%"}, {"measurement": "remaining activity at 0.2 µM", "setting": "340 wild-type kinases [8]; PKCzeta, 0.2 µM, read-out: residual activity", "value": 126, "unit": "%"}, {"measurement": "remaining activity at 1 µM", "setting": "340 wild-type kinases [8]; PKCzeta, 1 µM, read-out: residual activity", "value": 111, "unit": "%"}, {"measurement": "remaining activity at 0.2 µM", "setting": "340 wild-type kinases [9]; 0.2 µM 2015, read-out: EPHA5 residual activity", "value": 110, "unit": "%"}, {"measurement": "remaining activity at 1 µM", "setting": "340 wild-type kinases [9]; 1 µM 2015, read-out: EPHA5 residual activity", "value": 98.5, "unit": "%"}, {"measurement": "remaining activity at 0.2 µM", "setting": "340 wild-type kinases [9]; EPHA5, 0.2 µM, read-out: residual activity", "value": 110, "unit": "%"}, {"measurement": "remaining activity at 1 µM", "setting": "340 wild-type kinases [9]; EPHA5, 1 µM, read-out: residual activity", "value": 98.5, "unit": "%"}, {"measurement": "remaining activity at 0.2 µM", "setting": "340 wild-type kinases [10]; 0.2 µM 2015, read-out: SIK2 residual activity", "value": 101, "unit": "%"}, {"measurement": "remaining activity at 1 µM", "setting": "340 wild-type kinases [10]; 1 µM 2015, read-out: SIK2 residual activity", "value": 98.1, "unit": "%"}, {"measurement": "remaining activity at 0.2 µM", "setting": "340 wild-type kinases [10]; SIK2, 0.2 µM, read-out: residual activity", "value": 101, "unit": "%"}, {"measurement": "remaining activity at 1 µM", "setting": "340 wild-type kinases [10]; SIK2, 1 µM, read-out: residual activity", "value": 98.1, "unit": "%"}]}]}
